These results are taken from US10689395B2, “Tricyclic fused pyridin-2-one derivatives and their use as BRD4 inhibitors” (JUBILANT BIOSYS LIMITED, priority 2015, dated 2020).

Like-named read-outs stand apart in the source and are kept apart here. Bounds are passed on as bounds.

For one assay, the target named is BRD4-BD1 (Homo sapiens (Human), UniProt O60885). In words: BRD4 AlphaLISA (Perkin Elmer). It counts as binding. As to conditions: 5 nM BRD4-BD1, 12 nM biotinylated substrate, read-out: BRD4_BD1 IC50_μM. As to the method:
BRD4 AlphaLISA (Perkin Elmer)
Compounds were diluted by step-down dilution method (final concentration of DMSO was 1%) and added to the wells of a 384 well opti plate at desired concentrations. 5 nM BDR4-BD1 enzyme (produced in-house) and 12 nM of biotinylated substrate were added to the wells, covered and incubated at room temperature (RT) for 1 h. At the end of 1 h 250 ng of GSH acceptor beads were added to the well and incubated for 1 h at RT; then 500 ng of streptavidin donor beads were added and incubated again for 1 h at RT. Plates were read in a Pherastar reader at 680 nm excitation and 570 nm emission. As detailed above, compounds were tested for both BRD4 enzyme inhibitory activities and IC50 were determined.
On the technique in general: Bead proximity is the source of the signal in Alpha formats.

The test system of another assay is MV4-11 cells. In words: Anticancer activity: Alamar Blue assay, 3-day proliferation. It counts as cell-based. Particulars: AML cell line MV4-11, 72 h, read-out: MV4-11 EC50_μM. As to the method:
Anticancer Activity: Alamar Blue Assay
The impact of the compounds on cancer cell proliferation was determined using the AML cell line MV4-11 (ATCC) in a 3-day proliferation assay. MV4-11 cells were maintained in RPMI supplemented with 10% FBS at 37° C., 5% CO2. For compound testing, MV4-11 cells were plated in a 96-well black bottom plate at a density of 15,000 cells/well in 100 μL culture media and incubated at 37° C. overnight. Compound dilution series were prepared in DMSO via a 3-fold serial dilution from 100 μM to 0.005 μM. The DMSO dilution series were then diluted with media, with the final compound concentrations added to the wells ranging from 10 μM to 0.0005 μM. […] The fluorescent readings from the Alamar Blue assay were normalized to the DMSO treated cells and analyzed using the GraphPad Prism software with sigmoidal curve fitting to obtain EC50.

For the compound `CCOC(=O)CC1N=C(c2ccc(Cl)cc2)c2nc(C)sc2-c2cn(C)c(=O)cc21` (racemic) [l, ±Ethyl 2-(4-(4-chlorophenyl)-2,9-dimethyl-8-oxo-8,9-dihydro-6H-pyrido[4,3-c]thiazolo[5,4-e]azepin-6-yl)acetate], the IC50 on BRD4-BD1 was 140 nM. In the assay with MV4-11 cells, the EC50 amounted to 430 nM.

Regarding `Cc1sc2c(c1C)C(c1ccc(Cl)cc1)=NC(CC(N)=O)c1cc(=O)n(C)cc1-2` (racemic) [e, ±2-(4-(4-chlorophenyl)-2,3,9-trimethyl-8-oxo-8,9-dihydro-6H-pyrido[4,3-c]thieno[2,3-e]azepin-6-yl)acetamide], the IC50 at BRD4-BD1 was 2 nM. Further, in the assay on MV4-11 cells (Homo sapiens), the EC50 worked out at 7 nM.

For `CCNC(=O)CC1N=C(c2ccc(C#N)cc2)c2c(sc(C)c2C)-c2cn(C)c(=O)cc21` (stereo in doubt) [k, (R)-2-(4-(4-cyanophenyl)-2,3,9-trimethyl-8-oxo-8,9-dihydro-6H-pyrido[4,3-c]thieno[2,3-e]azepin-6-yl)-N-ethylacetamide], the IC50 at BRD4-BD1 was less than 0.5 nM. Besides, the EC50 with MV4-11 cells (Homo sapiens) amounted to 25 nM.

In the case of `CCNC(=O)CC1OC(c2ccc(Cl)cc2)c2c(cnn2C)-c2cn(C)c(=O)cc21` (racemic) [ll, ±2-(4-(4-chlorophenyl)-3,9-dimethyl-8-oxo-4,6,8,9-tetrahydro-3H-pyrazolo[4′,3′:5,6]oxepino[4,3-c]pyridin-6-yl)-N-ethylacetamide], the IC50 at BRD4-BD1 was 1 nM. Moreover, in the assay on MV4-11 cells, the EC50 was less than 0.5 nM.

Consider `Cc1sc2c(c1C)C(c1ccc(Cl)cc1)OC(CCO)c1cc(=O)n(C)cc1-2` (racemic) [hh, ±4-(4-chlorophenyl)-6-(2-hydroxyethyl)-2,3,9-trimethyl-4,9-dihydrothieno[2′,3′:5,6]oxepino[4,3-c]pyridin-8(6H)-one], for which the IC50 at BRD4-BD1 was 17 nM.

With `CCNC(=O)CC1N=C(CC2CC2)c2c(sc(C)c2C)-c2cn(C)c(=O)cc21` (racemic) [r, ±2-(4-(cyclopropylmethyl)-2,3,9-trimethyl-8-oxo-8,9-dihydro-6H-pyrido[4,3-c]thieno[2,3-e]azepin-6-yl)-N-ethylacetamide], the IC50 at BRD4-BD1 turned out to be 10 nM. In addition, in the assay on MV4-11 cells, the EC50 came out at 157 nM.

Consider `CCNC(=O)CC1OC(c2ccc(Cl)cc2)c2c(sc(C)c2C)-c2cn(C)c(=O)cc21` (racemic) [bb, ±2-(4-(4-chlorophenyl)-2,3,9-trimethyl-8-oxo-4,6,8,9-tetrahydrothieno[2′,3′:5,6]oxepino[4,3-c]pyridin-6-yl)-N-ethylacetamide], for which the IC50 on BRD4-BD1 came to 1 nM. In addition, in the assay on MV4-11 cells, the EC50 was less than 0.5 nM.

`CCOC(=O)CC1N=C(c2ccc(Cl)cc2)c2c(cnn2C)-c2cn(C)c(=O)cc21` (racemic) [w, ±Ethyl 2-(4-(4-chlorophenyl)-3,9-dimethyl-8-oxo-3,6,8,9-tetrahydropyrazolo[3,4-c]pyrido[3,4-e]azepin-6-yl)acetate]: the IC50 at BRD4-BD1 worked out at 10 nM. In addition, in the assay with MV4-11 cells, the EC50 came out at 26 nM.

As for `Cc1sc2c(c1C)C(c1ccc(Cl)cc1)OC(CC(N)=O)c1cc(=O)n(C)cc1-2` (racemic) [ee, ±2-(4-(4-chlorophenyl)-2,3,9-trimethyl-8-oxo-4,6,8,9-tetrahydrothieno[2′,3′:5,6]oxepino[4,3-c]pyridin-6-yl)acetamide], the IC50 at BRD4-BD1 was 2 nM. The EC50 in the assay on MV4-11 cells (Homo sapiens) was 7 nM.

As to `CCNC(=O)CC1N=C(c2ccc(Cl)cc2)c2nc(C)sc2-c2cn(C)c(=O)cc21` (racemic) [m, ±2-(4-(4-chlorophenyl)-2,9-dimethyl-8-oxo-8,9-dihydro-6H-pyrido[4,3-c]thiazolo[5,4-e]azepin-6-yl)-N-ethylacetamide], the IC50 on BRD4-BD1 is 1 nM. In addition, in the assay with MV4-11 cells, the EC50 was found to be 140 nM.

Consider `CCNC(=O)CC1N=C(c2ccc(Cl)cc2)c2c(sc(C)c2C)-c2cn(C)c(=O)cc21` (racemic) [b, ±2-(4-(4-chlorophenyl)-2,3,9-trimethyl-8-oxo-8,9-dihydro-6H-pyrido[4,3-c]thieno[2,3-e]azepin-6-yl)-N-ethylacetamide], for which the IC50 on BRD4-BD1 was determined as 2.2 nM. In the assay with MV4-11 cells (Homo sapiens), the EC50 came to 10 nM.

Take `CCNC(=O)CC1N=C(c2ccc(Cl)cc2)c2cc(OC)ncc2-c2cn(C)c(=O)cc21` (racemic) [t, ±2-(7-(4-chlorophenyl)-9-methoxy-2-methyl-3-oxo-3,5-dihydro-2H-dipyrido[4,3-c:3′,4′-e]azepin-5-yl)-N-ethylacetamide]: the IC50 at BRD4-BD1 came to 2 nM. Also, the EC50 in the assay with MV4-11 cells turned out to be 17 nM.

`CCNC(=O)C[C@@H]1N=C(c2ccc(Cl)cc2)c2c(cnn2C)-c2cn(C)c(=O)cc21` [z, (S)-2-(4-(4-chlorophenyl)-3,9-dimethyl-8-oxo-3,6,8,9-tetrahydropyrazolo[3,4-c]pyrido[3,4-e]azepin-6-yl)-N-ethylacetamide]: on BRD4-BD1, the IC50 was 5 nM. For the same compound, the EC50 in the assay with MV4-11 cells (Homo sapiens) is 53 nM.

In the case of `Cc1sc2c(c1C)C(c1ccc(Cl)cc1)=NC(CC(=O)Nc1ccc(O)cc1)c1cc(=O)n(C)cc1-2` (racemic) [h, ±2-(4-(4-chlorophenyl)-2,3,9-trimethyl-8-oxo-8,9-dihydro-6H-pyrido[4,3-c]thieno[2,3-e]azepin-6-yl)-N-(4-hydroxyphenyl)acetamide], the IC50 at BRD4-BD1 came out at 33 nM.
